Results reported in patent US20180193274A1, “COMPOSITIONS FOR ILEO-JEJUNAL DRUG DELIVERY” (Principia Biopharma Inc., priority 2014, published 2018).
Read-outs that look alike come from different tables or passages of the source.

What was measured:
[1] = Pharmacokinetic experiment comparing oral gavage, intra-duodenal and intra-jejunal dosing in rats; type: in vivo, Wister-Hans rats
Description: FIG. 1 depicts the results of a pharmacokinetic experiment comparing oral and intra-duodenal gavage dosing of (R)-2-(3-(4-amino-3-(2-fluoro-4-phenoxyphenyl)-1H-pyrazolo[3,4-d]pyrimidin-1-yl)piperidine-1-carbonyl)-4-methyl-4-(4-(oxetan-3-yl)piperazin-1-yl)pent-2-enenitrile having E/Z ratio of about 9:1. The area under the curve (AUC) and the Cmax are plotted.
(R)-2-(3-(4-amino-3-(2-fluoro-4-phenoxyphenyl)-1H-pyrazolo[3,4-d]pyrimidin-1-yl)piperidine-1-carbonyl)-4-methyl-4-(4-(oxetan-3-yl)piperazin-1-yl)pent-2-enenitrile was dosed in 10 mg/mL aqueous citrate solution at 20 mg/kg to Wister-Hans rats. Anhydrous citric acid (0.5 equivalents) was added to the free base of (R)-2-(3-(4-amino-3-(2-fluoro-4-phenoxyphenyl)-1H-pyrazolo[3,4-d]pyrimidin-1-yl)piperidine-1-carbonyl)-4-methyl-4-(4-(oxetan-3-yl)piperazin-1-yl)pent-2-enenitrile. The experiment was repeated 3 times each with 2 separate arms, and one oral gavage arm was included in each study. Intra-jejunal (IJ) and intra-duodenal dosing was done in cannulated rats. In the first study, there was a 40-fold increase in the AUC for the IJ-dosed group compared to the PO group, and the metabolite present in the IJ-group was reduced 10-fold.

[2] = cited from earlier work
[3] = 20 mg/kg, intra-duodenal vs oral, FIG. 1
[4] = 20 mg/kg, intra-jejunal vs oral, FIG. 1

For CC(C)(C=C(C#N)C(=O)N1CCC[C@@H](n2nc(-c3ccc(Oc4ccccc4)cc3F)c3c(N)ncnc32)C1)N1CCN(C2COC2)CC1 [(R)-2-(3-(4-amino-3-(2-fluoro-4-phenoxyphenyl)-1H-pyrazolo[3,4-d]pyrimidin-1-yl)piperidine-1-carbonyl)-4-methyl-4-(4-(oxetan-3-yl)piperazin-1-yl)pent-2-enenitrile], the “AUC, ID dosing compared to PO dosing” value [1, 3] was “increased”, the “Cmax, ID dosing compared to PO dosing” value [1, 3] was “increased” and the “AUC, IJ dosing compared to PO dosing” value [1, 4] was “substantially increased”. For the same molecule, the “Cmax, IJ dosing compared to PO dosing” value [1, 4] was “substantially increased” and the “increase in the AUC for the IJ-dosed group compared to the PO group” value ([1]; first study, 20 mg/kg in 10 mg/mL aqueous citrate solution, intra-jejunal vs oral gavage) was 40 fold.

In the case of C=CC(=O)N1CCC[C@@H](n2nc(-c3ccc(Oc4ccccc4)cc3)c3c(N)ncnc32)C1 [ibrutinib, 1-[(3R)-3-[4-Amino-3-(4-phenoxyphenyl)-1H-pyrazolo[3,4-d]pyrimidin-1-yl]piperidin-1-yl]prop-2-en-1-one], the “bioavailability as determined by AUC” value ([2]; administered intraduodenally) is listed as 100% and the “bioavailability as determined by AUC” value ([2]; direct oral administration) is listed as 21%.
